Source: patent publication US9261498B2, “Biomarker for sensitivity to mTOR inhibitor therapy in kidney cancer” (The Regents of the University of California, priority 2005, dated 2016)

Tested on: VHL knockdown xenograft tumors
Test: FDG microPET imaging of xenograft tumors
Type: in vivo, SCID mice
Conditions: within 24 hours, CCI-779 0.1 mg/kg i.p. every 12 hours; uptake normalized to liver
Procedure: FIGS. 5A-5B. […] (a) Representative images of two SCID-mice bearing isogenic ACHN-xenograft tumors on the right flank before and after two doses of CCI-799 (0.1 mg/kg). Arrows indicate the location of subcutaneous xenograft tumors (innate increased signal intensity due to abdominal brown fat and glial tissue are observed in the thorax and skull of the mice). (b) Quantification of FDG uptake (+/−SEM) in SCID-mice bearing either ACHN-vector or ACHN-CSCG VHL shRNA subcutaneous xenografts. FDG-tumor uptake was normalized to hepatic FDG-uptake for each mouse. n=3 per group and experiments were repeated twice with identical results.
Total RNA was extracted from SN12C-CSCG, ACHN-CSCG, SN12C-CSCG-VHLshRNA and ACHN-CSCG-VHL shRNA cell lines treated with vehicle or 10 nM of CCI-779 using the RNeasy kit (Qiagen). Two μg of total RNA was used as a template for the production of c DNA through reverse transcription. […] Threshold cycles (Ct's) for the RT samples were recorded. […] Tracer uptake by the tumors was expressed as the ratio between the maximum intratumoral and mean hepatic counts/pixel. All quantitative values are reported as mean±standard error of the mean (SEM).

For `CO[C@H]1C[C@@H]2CC[C@@H](C)[C@@](O)(O2)C(=O)C(=O)N2CCCC[C@H]2C(=O)O[C@H]([C@H](C)C[C@@H]2CC[C@@H](OC(=O)C(C)(CO)CO)[C@H](OC)C2)CC(=O)[C@H](C)/C=C(\C)[C@@H](O)[C@@H](OC)C(=O)[C@H](C)C[C@H](C)/C=C/C=C/C=C/1C` [CCI-779], the “FDG uptake of VHL knockdown tumors” value was “reduced to baseline”.
